Laboratory results: US5648336A (University of Colorado, priority 1994, dated 1997)
Read-outs that look alike come from different tables or passages of the source. Square brackets hold non-standard residues; d marks the D form. Ends that are not written are not given here. Peptide text beside a SMILES is read from it. * marks the point of attachment. X1 = N=C(N)NCCC[C@@H](NC(=NC1CCCCC1)NC1CCCCC1)C(=O)*; Oic = O=C(O)[C@@H]1C[C@@H]2CCCC[C@@H]2N1; dIgl = N[C@@H](C(=O)O)C1Cc2ccccc2C1; Igl = N[C@H](C(=O)O)C1Cc2ccccc2C1; Hyp = O=C(O)[C@@H]1C[C@@H](O)CN1; 2Thi = N[C@@H](Cc1cccs1)C(=O)O

Experiments:
[1] = test system: guinea pig ileum
Description: (§1) A change of one unit of pA2 value represents an order of magnitude change in potency.
(§2) On isolated smooth muscles, agonist potency is given as percent of BK potency; antagonist potency is given as pA2, and is underlined. In blood pressure assays, the number is the dose of peptide in micrograms that causes 50% reduction in the effect of BK intraarterially administered as a bolus mixture in a 500 g male rat; Ag indicates unquantitated agonist activity; Ant indicates unquantitated antagonist activity.

[2] = target: T1, B1 receptors (Oryctolagus cuniculus, UniProt P48748); assay: B1 receptor bioassay, rabbit aorta strips contracted with des-Arg9-BK; format: cell-based; details: 50% reduction of sustained contraction to 10^-7 M des-Arg9-BK; read-out: Rabbit Aorta p IC50 B1 receptors (converted)
T1 construct: The thorax was opened and the thoracic aorta carefully removed; from tissue; host or cells: rabbit thoracic aorta spiral strips
T1 sequence (P48748 1-352): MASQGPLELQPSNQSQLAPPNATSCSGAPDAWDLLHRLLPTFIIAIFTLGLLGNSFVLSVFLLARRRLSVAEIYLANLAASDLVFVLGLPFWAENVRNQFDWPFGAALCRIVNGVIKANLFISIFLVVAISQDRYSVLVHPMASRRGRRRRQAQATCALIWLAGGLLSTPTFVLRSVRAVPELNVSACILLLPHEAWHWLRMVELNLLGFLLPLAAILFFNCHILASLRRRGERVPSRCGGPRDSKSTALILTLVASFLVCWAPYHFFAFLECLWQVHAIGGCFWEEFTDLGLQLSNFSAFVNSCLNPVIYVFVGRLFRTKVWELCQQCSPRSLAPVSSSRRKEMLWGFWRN
Description: Male New Zealand white rabbits, weight range 2-3 kg, were killed by an overdose of pentobarbital i.v. The thorax was opened and the thoracic aorta carefully removed. […] The tissues were placed under 1 gm isometric tension and allowed to equilibrate for 1H. At time 1h, a concentration-effect curve was constructed to the selective B1 agonist des-Arg^9 -BK. This was repeated at time 3 hours. […] Once the contraction was sustained, the compound to be assayed was applied to the tissue bath in a cumulative manner. The concentration of the compound which produced a 50% reduction of the sustained contraction was calculated. The negative logarithm of this concentration was calculated and expressed as the […].

[3] = test system: isolated rat uterus
Description: as §1, §2

[4] = guinea pig ileum, vs double ED50 dose of bradykinin

Row | Compound | Ileum Activity, antagonist potency given as pA2 [1] | Uterus Activity, antagonist potency given as pA2 [3] | further results
1 | N=C(N)NCCC[C@@H](N)C(=O)N[C@@H](CCCNC(=N)N)C(=O)N1CCC[C@H]1C(=O)N1C[C@H](O)C[C@H]1C(=O)NCC(=O)N[C@H](C(=O)N[C@@H](CO)C(=O)N[C@@H](C(=O)N1[C@H](C(=O)N[C@@H](CCCNC(=N)N)C(=O)O)C[C@@H]2CCCC[C@@H]21)C1Cc2ccccc2C1)C1CCCC1 [Compound 24, DArg-Arg-Pro-Hyp-Gly-Cpg-Ser-DIglb-Oic-Arg] | 8.1 |  | IC50 [2]: 427 nM
2 | N=C(N)NCCC[C@@H](N)C(=O)N[C@@H](CCCNC(=N)N)C(=O)N1CCC[C@H]1C(=O)N1C[C@H](O)C[C@H]1C(=O)NCC(=O)N[C@H](C(=O)N[C@@H](CO)C(=O)N1Cc2ccccc2C[C@@H]1C(=O)N[C@H](C(=O)N[C@@H](CCCNC(=N)N)C(=O)O)C1Cc2ccccc2C1)C1CCCC1 [Compound 12, DArg-Arg-Pro-Hyp-Gly-Cpg-Ser-DTic-Iglb-Arg] | 5.1 |  | Uterus Activity, agonist potency given as percent of BK potency [3]: 10.5%
3 | N=C(N)NCCC[C@@H](N)C(=O)N[C@@H](CCCNC(=N)N)C(=O)N1CCC[C@H]1C(=O)N1C[C@H](O)C[C@H]1C(=O)NCC(=O)N[C@H](C(=O)N[C@@H](CO)C(=O)N[C@@H](C(=O)N[C@@H](C(=O)N[C@@H](CCCNC(=N)N)C(=O)O)C1Cc2ccccc2C1)C1CCCC1)C1CCCC1 [Compound 11, DArg-Arg-Pro-Hyp-Gly-Cpg-Ser-DCpg-DIglb-Arg] |  |  | IC50 [2]: 398 nM
4 | N=C(N)NCCC[C@@H](N)C(=O)N[C@@H](CCCNC(=N)N)C(=O)N1CCC[C@H]1C(=O)N1C[C@H](O)C[C@H]1C(=O)NCC(=O)N[C@@H](Cc1cccs1)C(=O)N[C@@H](CO)C(=O)N[C@@H](C(=O)N[C@@H](C(=O)N[C@@H](CCCNC(=N)N)C(=O)O)C1Cc2ccccc2C1)C1CCCC1 [Compound 9, DArg-Arg-Pro-Hyp-Gly-Thi-Ser-DCpg-DIglb-Arg] | 7.2 | 7.4 | 
5 | DArg-Arg-Pro-Hyp-Gly-Thi-Ser-Higb-Oic-Arg [Compound 125] |  |  | Uterus Activity, agonist potency given as percent of BK potency ([3]; isolated rat uterus): 9.4%; Ileum Activity, antagonist potency given as pA2 [1, 4]: 6.6
6 | N=C(N)NCCC[C@@H](N)C(=O)N[C@@H](CCCNC(=N)N)C(=O)N1CCC[C@H]1C(=O)N1C[C@H](O)C[C@H]1C(=O)NCC(=O)N[C@H](C(=O)N[C@@H](CO)C(=O)N1Cc2ccccc2C[C@@H]1C(=O)N(CC(=O)N[C@@H](CCCNC(=N)N)C(=O)O)C1Cc2ccccc2C1)C1CCCC1 [Compound 29, DArg-Arg-Pro-Hyp-Gly-Cpg-Ser-DTic-Nigb-Arg] | 7.6 | 8.1 | 
7 | N=C(N)NCCC[C@@H](N)C(=O)N[C@@H](CCCNC(=N)N)C(=O)N1CCC[C@H]1C(=O)N1C[C@H](O)C[C@H]1C(=O)NCC(=O)N[C@@H](Cc1ccccc1)C(=O)N[C@@H](CO)C(=O)N[C@H](C(=O)N1[C@H](C(=O)N[C@@H](CCCNC(=N)N)C(=O)O)C[C@@H]2CCCC[C@@H]21)C1Cc2ccccc2C1 [Compound 14, DArg-Arg-Pro-Hyp-Gly-Phe-Ser-Iglb-Oic-Arg] (H-[dR]RP[Hyp]GFS[Igl][Oic]R-OH) | 5.1 | 6.5 | 
8 | N=C(N)NCCC[C@H](NC(=O)[C@@H]1C[C@@H]2CCCC[C@@H]2N1C(=O)[C@H](NC(=O)[C@H](CO)NC(=O)[C@H](Cc1cccs1)NC(=O)CNC(=O)[C@@H]1C[C@@H](O)CN1C(=O)[C@@H]1CCCN1C(=O)[C@H](CCCNC(=N)N)NC(=O)[C@@H](CCCNC(=N)N)NC(=O)C1=CN2CCC1CC2)C1Cc2ccccc2C1)C(=O)O [Compound 59, Dhq-DArg-Arg-Pro-Hyp-Gly-Thi-Ser-DIglb-Oic-Arg] | 7.2 | 8.1 | 
9 | N=C(N)NCCC[C@H](NC(=O)[C@@H]1C[C@@H]2CCCC[C@@H]2N1C(=O)[C@H](NC(=O)[C@H](CO)NC(=O)[C@H](Cc1cccs1)NC(=O)CNC(=O)[C@@H]1C[C@@H](O)CN1C(=O)[C@@H]1CCCN1C(=O)[C@H](CCCNC(=N)N)NC(=O)[C@@H](CCCNC(=N)N)NC(=O)C12CC3CC(CC(C3)C1)C2)C1Cc2ccccc2C1)C(=O)O [Compound 55, Aca-DArg-Arg-Pro-Hyp-Gly-Thi-Ser-DIglb-Oic-Arg] | 8.4 | 9.2 | IC50 [2]: 269 nM
10 | N=C(N)NCCC[C@H](NC(=O)[C@@H]1C[C@@H]2CCCC[C@@H]2N1C(=O)[C@H](NC(=O)[C@H](CO)NC(=O)[C@H](Cc1cccs1)NC(=O)CNC(=O)[C@@H]1C[C@@H](O)CN1C(=O)[C@@H]1CCCN1C(=O)[C@H](CCCNC(=N)N)NC(=O)[C@@H](CCCNC(=N)N)NC(=NC1CCCCC1)NC1CCCCC1)C1Cc2ccccc2C1)C(=O)O [Compound 58, Dcg-DArg-Arg-Pro-Hyp-Gly-Thi-Ser-DIglb-Oic-Arg] (X1-RP[Hyp]G[2Thi]S[dIgl][Oic]R-OH) | 5.4 |  | Uterus Activity, agonist potency given as percent of BK potency [3]: 3.0%
11 | DArg-Arg-Pro-Hyp-Gly-Thi-Ser-DIgl-Iglb-Arg [Compound 19] |  |  | Uterus Activity, agonist potency given as percent of BK potency ([3]; isolated rat uterus): 9.1%; Ileum Activity, antagonist potency given as pA2 [1, 4]: 6.7
12 | N=C(N)NCCC[C@H](NC(=O)[C@@H]1C[C@@H]2CCCC[C@@H]2N1C(=O)[C@@H](NC(=O)[C@H](CO)NC(=O)[C@H](Cc1cccs1)NC(=O)CNC(=O)[C@@H]1C[C@@H](O)CN1C(=O)[C@@H]1CCCN1C(=O)[C@H](CCCNC(=N)N)NC(=O)[C@@H](CCCNC(=N)N)NC(=O)C12CC3CC(CC(C3)C1)C2)C1Cc2ccccc2C1)C(=O)O [Compound 54, Aca-DArg-Arg-Pro-Hyp-Gly-Thi-Ser-Iglb-Oic-Arg] |  | 5.8 | 
13 | Cc1ccc(C[C@H](NC(=O)CNC(=O)[C@@H]2C[C@@H](O)CN2C(=O)[C@@H]2CCCN2C(=O)[C@H](CCCNC(=N)N)NC(=O)[C@H](N)CCCNC(=N)N)C(=O)N[C@@H](CO)C(=O)N[C@@H](C(=O)N2[C@H](C(=O)N[C@@H](CCCNC(=N)N)C(=O)O)C[C@@H]3CCCC[C@@H]32)C2Cc3ccccc3C2)c(C)c1 [Compound 26, DArg-Arg-Pro-Hyp-Gly-DMF-Ser-DIglb-Oic-Arg] | 6.6 | 7.3 | 
14 | RPPGFSPFR [bradykinin, Arg^1 -Pro^2 -Pro^3 -Gly^4 -Phe^5 -Ser^6 -Pro^7 -Phe^8 -Arg^9, reference compound] |  |  | pD2 value (negative logarithm of the dose causing half-maximal contraction) ([3]; rat uterus): 7.9; pD2 value (negative logarithm of the dose causing half-maximal contraction) ([1]; guinea pig ileum): 7.4
15 | N=C(N)NCCC[C@@H](N)C(=O)N[C@@H](CCCNC(=N)N)C(=O)N1CCC[C@H]1C(=O)N1C[C@H](O)C[C@H]1C(=O)NCC(=O)N[C@H](C(=O)N[C@@H](CO)C(=O)N1Cc2ccccc2C[C@@H]1C(=O)N[C@@H](C(=O)N[C@@H](CCCNC(=N)N)C(=O)O)C1Cc2ccccc2C1)C1CCCC1 [Compound 13, DArg-Arg-Pro-Hyp-Gly-Cpg-Ser-DTic-DIglb-Arg] | 6.0 |  | Uterus Activity, agonist potency given as percent of BK potency [3]: 8.6%
16 | N=C(N)NCCC[C@@H](N)C(=O)N[C@@H](CCCNC(=N)N)C(=O)N1CCC[C@H]1C(=O)N1C[C@H](O)C[C@H]1C(=O)NCC(=O)N[C@@H](Cc1ccccc1)C(=O)N[C@@H](CO)C(=O)N[C@@H](C(=O)N1[C@H](C(=O)N[C@@H](CCCNC(=N)N)C(=O)O)C[C@@H]2CCCC[C@@H]21)C1Cc2ccccc2C1 [Compound 15, DArg-Arg-Pro-Hyp-Gly-Phe-Ser-DIglb-Oic-Arg] (H-[dR]RP[Hyp]GFS[dIgl][Oic]R-OH) | 7.6 | 7.9 | IC50 [2]: 162 nM
17 | N=C(N)NCCC[C@@H](N)C(=O)N[C@@H](CCCNC(=N)N)C(=O)N1CCC[C@H]1C(=O)N1C[C@H](O)C[C@H]1C(=O)NCC(=O)N[C@@H](C(=O)N[C@@H](CO)C(=O)N[C@@H](C(=O)N1[C@H](C(=O)N[C@@H](CCCNC(=N)N)C(=O)O)C[C@@H]2CCCC[C@@H]21)C1Cc2ccccc2C1)C1Cc2ccccc2C1 [Compound 30, DArg-Arg-Pro-Hyp-Gly-DIglb-Ser-DIglb-Oic-Arg] |  |  | IC50 [2]: > 10000 nM
